≈ marks a conversion by molar mass, not a printed value. Calls of active or inactive are those of the source. No cut-off for these calls is given here.
Columns and labels:
[1] = test system: U-87 MG; assay: Antitumor activity against human U-87 MG cells xenografted in BALB/c nude mouse assessed as increase in p53 expression at 1.5 to 3 mg/kg, po measured after 4 hrs in presence of 40 mg/kg TMZ by Western blotting analysis; type: functional, organism-based; conditions: U-87MG ATCC, dose 1.5-3 mg/kg
[2] = test system: U-87MG ATCC; assay: Downregulation of MGMT expression in human U-87 MG cells at 25 uM incubated for 24 hrs in presence of TMZ by Western blotting analysis; type: functional, cell-based
[3] = Stability of compound in stimulated gastric fluid assessed as remaining compound after 24 hrs by HPLC method; type: ADME; conditions: simulated gastric fluid, read-out: Stability
[4] = Toxicity in BALB/c nude mouse xenografted with U-87 MG cells assessed as spleen damage at 1.5 to 3 mg/kg, po administered every other day for 18 days in presence of 40 mg/kg TMZ by H and E staining based assay; type: organism-based; conditions: in vivo, 432 h, dose 1.5-3 mg/kg, time 18 day
[5] = AUC(0 to infinity) in Sprague-Dawley rat at 5 mg/kg, iv measured upto 24 hrs by LC-MS/MS method; type: ADME, organism-based; conditions: in vivo
[6] = test system: U-87 MG; assay: Induction of apoptosis in human U-87 MG cells assessed as G0/G1 phase cells at 5 uM incubated for 24 hrs by propidium iodide staining based flow cytometry analysis (reference value: 58.8%); type: functional, U-87MG ATCC
[7] = Cmax in Sprague-Dawley rat at 5 mg/kg, iv measured upto 24 hrs by LC-MS/MS method; type: ADME, organism-based; conditions: in vivo
[8] = test system: U-87 MG; assay: Antitumor activity against human U-87 MG cells xenografted in BALB/c nude mouse assessed as increase in p53 expression at 3 mg/kg, po measured after 4 hrs by Western blotting analysis; type: functional, organism-based; conditions: U-87MG ATCC
[9] = Tmax in Sprague-Dawley rat at 5 mg/kg, iv measured upto 24 hrs by LC-MS/MS method; type: ADME, organism-based; conditions: in vivo
[10] = Half-life in Sprague-Dawley rat at 25 mg/kg, po measured upto 24 hrs by LC-MS/MS method; type: ADME, organism-based; conditions: in vivo
[11] = species: Homo sapiens; assay: Selectivity ratio of IC50 for PP2A (unknown origin ) to IC50 for PP5 (unknown origin)
[12] = Toxicity in BALB/c nude mouse xenografted with U-87 MG cells assessed as liver damage at 1.5 to 3 mg/kg, po administered every other day for 18 days in presence of 40 mg/kg TMZ by H and E staining based assay; type: organism-based; conditions: in vivo, 432 h, dose 1.5-3 mg/kg, time 18 day
[13] = test system: U-87MG ATCC; assay: Upregulation of p27 expression in human U-87 MG cells at 6.25 to 100 uM after 24 hrs by Western blotting analysis; type: functional, cell-based; conditions: dose 6.25-100 µM
[14] = MRT(0 to infinity) in Sprague-Dawley rat at 5 mg/kg, iv measured upto 24 hrs by LC-MS/MS method; type: ADME, organism-based; conditions: in vivo
[15] = Apparent clearance in Sprague-Dawley rat at 25 mg/kg, po measured upto 24 hrs by LC-MS/MS method; type: ADME, organism-based; conditions: in vivo, read-out: CL(app) (converted)
[16] = test system: U-87 MG; assay: Synergistic antiproliferative activity against human U-87 MG cells in presence of TMZ; type: functional, cell-based, U-87MG ATCC
[17] = test system: U-87MG ATCC; assay: Upregulation of p21 expression in human U-87 MG cells at 6.25 to 100 uM after 24 hrs by Western blotting analysis; type: functional, cell-based; conditions: dose 6.25-100 µM
[18] = species: Homo sapiens; assay: Selectivity ratio of IC50 for PP1 (unknown origin ) to IC50 for PP5 (unknown origin)
[19] = test system: U-87 MG; assay: Synergistic antiproliferative activity against human U-87 MG cells at 10 uM in presence of TMZ; type: functional, cell-based; conditions: U-87MG ATCC
[20] = test system: U-87 MG; assay: Induction of apoptosis in human U-87 MG cells assessed as S phase cells at 5 uM incubated for 24 hrs by propidium iodide staining based flow cytometry analysis (reference value: 29.4%); type: functional, U-87MG ATCC
[21] = test system: U-87 MG; assay: Antitumor activity against human U-87 MG cells xenografted in BALB/c nude mouse assessed as reduction in MGMT expression at 1.5 to 3 mg/kg, po measured after 4 hrs in presence of 40 mg/kg TMZ by Western blotting analysis; type: functional, organism-based; conditions: U-87MG ATCC, dose 1.5-3 mg/kg
[22] = Aqueous solubility of compound by HPLC method; type: physicochemical; conditions: water
[23] = test system: U-87 MG; assay: Antitumor activity against human U-87 MG cells xenografted in BALB/c nude mouse assessed as reduction in tumor weight at 3 mg/kg, po administered every other day for 18 days in presence of 40 mg/kg TMZ; type: functional, organism-based; conditions: U-87MG ATCC, time 18.0 day
[24] = Aqueous stability of compound assessed as compound remaining measured at 240 mins by HPLC assay; type: physicochemical; conditions: aqueous solution, read-out: Stability
[25] = Oral bioavailability in Sprague-Dawley rat at 25 mg/kg measured upto 24 hrs by LC-MS/MS method; type: ADME, organism-based; conditions: in vivo
[26] = test system: U-87MG ATCC; assay: Downregulation of MGMT expression in human U-87 MG cells at 25 uM incubated for 24 hrs by Western blotting analysis; type: functional, cell-based
[27] = Cytotoxicity against HEK293T cells incubated for 48 hrs by CCK8 assay; type: toxicity, cell-based, HEK-293T; conditions: human
[28] = Stability in mouse plasma assessed as half life measured upto 300 mins by LC-MS/MS analysis; type: ADME, cell-free
[29] = Stability of compound in stimulated intestinal fluid assessed as remaining compound after 24 hrs by HPLC method; type: ADME; conditions: simulated intestinal fluid, read-out: Stability
[30] = Toxicity in BALB/c nude mouse xenografted with U-87 MG cells assessed as heart damage at 1.5 to 3 mg/kg, po administered every other day for 18 days in presence of 40 mg/kg TMZ by H and E staining based assay; type: organism-based; conditions: in vivo, 432 h, dose 1.5-3 mg/kg, time 18 day
[31] = Half-life in Sprague-Dawley rat at 5 mg/kg, iv measured upto 24 hrs by LC-MS/MS method; type: ADME, organism-based; conditions: in vivo
[32] = test system: U-87 MG; assay: Antitumor activity against human U-87 MG cells xenografted in BALB/c nude mouse assessed as tumor growth inhibition at 1.5 mg/kg, po administered every other day for 18 days in presence of 40 mg/kg TMZ; type: functional, U-87MG ATCC; conditions: 432 h, time 18 day, read-out: TGI
[33] = Stability of compound in water assessed as remaining compound after 24 hrs; type: physicochemical; conditions: read-out: Stability
[34] = test system: A549; assay: Cytotoxicity against human A549 cells incubated for 48 hrs by CCK8 assay; type: functional, cell-based; conditions: A549, 48 h
[35] = test system: HCT-116; assay: Cytotoxicity against human HCT-116 cells incubated for 48 hrs by CCK8 assay; type: functional, cell-based; conditions: HCT-116, 48 h
[36] = test system: U-87 MG; assay: Antitumor activity against human U-87 MG cells xenografted in BALB/c nude mouse assessed as tumor tissue necrosis at 1.5 to 3 mg/kg, po administered every other day for 18 days in presence of 40 mg/kg TMZ; type: functional, organism-based; conditions: U-87MG ATCC, dose 1.5-3 mg/kg, time 18.0 day
[37] = test system: U-87 MG; assay: Cytotoxicity against human U-87 MG cells incubated for 48 hrs by CCK8 assay; type: functional, cell-based, U-87MG ATCC
[38] = test system: U-87MG ATCC; assay: Upregulation of p53 expression in human U-87 MG cells at 25 uM after 24 hrs in presence TMZ by Western blotting analysis; type: functional, cell-based
[39] = test system: U-87MG ATCC; assay: Downregulation of cyclin D1 expression in human U-87 MG cells at 25 uM incubated for 24 hrs by Western blotting analysis; type: functional, cell-based
[40] = Apparent clearance in Sprague-Dawley rat at 5 mg/kg, iv measured upto 24 hrs by LC-MS/MS method; type: ADME, organism-based; conditions: in vivo, read-out: CL(app) (converted)

O=C(O)[C@@H]1[C@H](C(=O)n2ccc3ccccc32)[C@H]2CC[C@@H]1O2
Activity [1]: Active | Activity [2]: Active | remaining at 24 h [3]: 92% | Activity [4]: Non-Toxic | AUC(0-inf) [5]: 13300 ng·h/mL | Activity [6]: 72.2% | Cmax [7]: 8620 ng/mL | Activity [8]: Active | Tmax [9]: 1.2 min | half-life [10]: 3.94 h | Ratio IC50 [11]: 38 | Activity [12]: Non-Toxic | Activity [13]: Active | MRT inf [14]: 5.52 h | CL/F [15]: 7.69 mL/min/kg | IC50 [16]: 19.8 µM | Activity [17]: Active | Ratio IC50 [18]: 21.4 | Activity [19]: Active | Activity [20]: 19.2% | Activity [21]: Active | solubility [22]: 552 µg/mL (≈ 1930 µM) | Activity [23]: Active | remaining at 4 h [24]: 99.8% | bioavailability [25]: 82% | Activity [26]: Active | IC50 at 48 h [27]: > 200 µM | half-life [28]: 2.09 h | remaining at 24 h [29]: 96% | Activity [30]: Non-Toxic | half-life [31]: 2.41 h | inhibition in vivo at 1.5 mg/kg [32]: 70.9% | remaining at 24 h [33]: 98.3% | IC50 [34]: 69.6 µM | IC50 [35]: 26.5 µM | Activity [36]: Active | IC50 [37]: 70.1 µM | Activity [38]: Active | Activity [39]: Active | clearance [40]: 6.3 mL/min/kg
